In ChEMBL document CHEMBL5608247, “Development of a First-in-Class DNMT1/HDAC Inhibitor with Improved Therapeutic Potential and Potentiated Antitumor Immunity” (J Med Chem, 2024):
Calls of active or inactive are those of the source. No cut-off for these calls is given here.

Tests used:
[1] = test system: MV4-11; assay: Downregulation of FOXH1 expression in human MV4-11 cells at 100 nM incubated for 2 days in presence of SAHA by RNA-Seq analysis; assay type: functional, cell-based; conditions: time 2.0 day
[2] = test system: MV4-11; assay: Downregulation of MYC expression in human MV4-11 cells at 100 nM incubated for 2 days in presence of SAHA by RNA-Seq analysis; assay type: functional, cell-based; conditions: time 2.0 day
[3] = target: Histone deacetylase (Homo sapiens) (UniProt Q13547+O15379+Q9UBN7+Q92769+Q9UQL6+Q8WUI4+Q9BY41+Q96DB2+P56524+Q9UKV0+Q969S8); assay: Inhibition of HDAC in human MV4-11 cells at 100 nM incubated for 2 days in presence of SAHA by RNA-Seq analysis; assay type: cell-based; conditions: time 2.0 day
[4] = Toxicity in BALB/c nude mouse xenografted with human MV4-11 cells assessed as body weight loss at 45 mg/kg, ip qd treated for 19 days; assay type: organism-based; conditions: in vivo, 456 h, time 19 day
[5] = Inhibition of cell viability in human HSPC cells incubated for 4 days in presence of SAHA by CCK8 assay; assay type: toxicity, cell-based
[6] = test system: MV4-11; assay: Upregulation of BLK expression in human MV4-11 cells at 100 nM incubated for 2 days in presence of SAHA by RNA-Seq analysis; assay type: functional, cell-based; conditions: time 2.0 day
[7] = target: T1, DNA (cytosine-5)-methyltransferase 1 (Homo sapiens, UniProt P26358); assay: Inhibition of DNMT1 in human MV4-11 cells at 1 uM incubated for 6 hrs in presence of CQ by Western blot analysis; assay type: cell-based
[8] = test system: MV4-11; assay: Antitumor activity against human MV4-11 cells xenografted in BALB/c nude mouse at 30 mg/kg, ip qd for 27 days in presence of SAHA relative to control; assay type: functional; conditions: MV4-11, 648 h, time 27 day, read-out: TGI
[9] = test system: HL-60; assay: Inhibition of cell viability in human HL-60 cells incubated for 4 days in presence of SAHA by CCK8 assay; assay type: functional, cell-based; conditions: HL-60, 96 h
[10] = target: T1, DNA (cytosine-5)-methyltransferase 1; assay: Inhibition of DNMT1 in human MV4-11 cells at 1 uM incubated for 6 hrs in presence of Z-VAD-FMK by Western blot analysis; assay type: cell-based
[11] = target: T1, DNA (cytosine-5)-methyltransferase 1; assay: Inhibition of DNMT1 in human HL-60 cells at 1 uM incubated for 6 hrs in presence of MG132 by Western blot analysis; assay type: cell-based
[12] = Toxicity in immunodeficient BALB/c nude mouse allografted with mouse MC38 cells assessed as body weight loss at 30 mg/kg, ip qd for 15 days in presence of SAHA; assay type: organism-based, MC-38; conditions: in vivo, 360 h, time 15 day
[13] = test system: MC-38; assay: Upregulation of Oas2 mRNA level in mouse MC38 cells at 1 to 3 uM incubated for 3 days in presence of SAHA by qRT-PCR analysis; assay type: functional, cell-based; conditions: dose 1-3 µM, time 3.0 day
[14] = test system: MV4-11; assay: Upregulation of p57 expression in human MV4-11 cells at 100 nM incubated for 2 days in presence of SAHA by RNA-Seq analysis; assay type: functional, cell-based; conditions: time 2.0 day
[15] = test system: MC-38; assay: Upregulation of Isg15 mRNA level in mouse MC38 cells at 1 to 3 uM incubated for 3 days in presence of SAHA by qRT-PCR analysis; assay type: functional, cell-based; conditions: dose 1-3 µM, time 3.0 day
[16] = test system: MV4-11; assay: Downregulation of GLIS2 expression in human MV4-11 cells at 100 nM incubated for 2 days in presence of SAHA by RNA-Seq analysis; assay type: functional, cell-based; conditions: time 2.0 day
[17] = test system: MV4-11; assay: Downregulation of GPR183 expression in human MV4-11 cells at 100 nM incubated for 2 days in presence of SAHA by RNA-Seq analysis; assay type: functional, cell-based; conditions: time 2.0 day
[18] = test system: MC-38; assay: Upregulation of IAPEz mRNA level in mouse MC38 cells at 1 to 3 uM incubated for 3 days in presence of SAHA by qRT-PCR analysis; assay type: functional, cell-based; conditions: dose 1-3 µM, time 3.0 day
[19] = target: T1, DNA (cytosine-5)-methyltransferase 1; assay: Inhibition of DNMT1 in human HL-60 cells at 1 uM incubated for 6 hrs in presence of Z-VAD-FMK by Western blot analysis; assay type: cell-based
[20] = test system: MC-38; assay: Immunomodulatory activity in mouse MC38 cells allografted in mouse assessed as accumulation of T cells at 30 mg/kg, ip qd in presence of SAHA; assay type: functional, organism-based
[21] = target: T1, DNA (cytosine-5)-methyltransferase 1; assay: Inhibition of DNMT1 in human MV4-11 cells assessed as ABT1 promoter methylation at 300 nM incubated for 3 days by Bisulfite Sequencing PCR analysis (reference value: 99.3 %); assay type: cell-based; design: scale not given: the % may be the effect or the level left; conditions: time 3.0 day
[22] = test system: MC-38; assay: Immunomodulatory activity in mouse MC38 cells allografted in mouse assessed as inhibition of pro-tumor M2 polarization at 30 mg/kg, ip qd in presence of SAHA; assay type: functional, organism-based
[23] = test system: MV4-11; assay: Inhibition of cell viability in human MV4-11 cells incubated for 4 days in presence of SAHA by CCK8 assay; assay type: functional, cell-based; conditions: MV4-11, 96 h
[24] = target: T1, DNA (cytosine-5)-methyltransferase 1; assay: Inhibition of DNMT1 in human HL-60 cells at 1 uM incubated for 6 hrs in presence of CQ by Western blot analysis; assay type: cell-based
[25] = test system: MV4-11; assay: Upregulation of S100A16 expression in human MV4-11 cells at 100 nM incubated for 2 days in presence of SAHA by RNA-Seq analysis; assay type: functional, cell-based; conditions: time 2.0 day
[26] = test system: MC-38; assay: Immunomodulatory activity in mouse MC38 cells allografted in mouse assessed as accumulation of NKT cells at 30 mg/kg, ip qd in presence of SAHA; assay type: functional, organism-based
[27] = test system: MC-38; assay: Immunomodulatory activity in mouse MC38 cells allografted in mouse assessed as polarization of macrophages towards tumor -suppressing M1 phenotype at 30 mg/kg, ip qd in presence of SAHA; assay type: functional, organism-based
[28] = Toxicity in BALB/c nude mouse xenografted with human MV4-11 cells assessed as body weight loss at 30 mg/kg, ip qd for 27 days in presence of SAHA; assay type: organism-based; conditions: in vivo, 648 h, time 27 day
[29] = target: T1, DNA (cytosine-5)-methyltransferase 1; assay: Inhibition of DNMT1 in human MV4-11 cells at 1 uM incubated for 6 hrs in presence of MG132 by Western blot analysis; assay type: cell-based
[30] = test system: Kasumi 1; assay: Inhibition of cell viability in human Kasumi 1 cells incubated for 4 days in presence of SAHA by CCK8 assay; assay type: functional, cell-based; conditions: Kasumi 1, 96 h
[31] = test system: MV4-11; assay: Antiproliferative activity against human MV4-11 cells incubated for 96 hrs by CCK8 assay; assay type: functional, cell-based; conditions: MV4-11, 96 h
[32] = target: T1, DNA (cytosine-5)-methyltransferase 1; assay: Induction of thermal stabilization of N-terminal 6xHis-FLAG-tagged […] human DNMT1 (698 to 1616 residues) extracted from Sf9 cells assessed as change in melting temperature at 10 uM by SYPRO Orange dye based PTS assay (reference value: 0.0 degreeC); assay type: cell-based
[33] = Toxicity in BALB/c nude mouse xenografted with human MV4-11 cells assessed as animal fatality at 45 mg/kg, ip qd treated for 19 days; assay type: organism-based; conditions: in vivo, 456 h, time 19 day
[34] = test system: MV4-11; assay: Antitumor activity against human MV4-11 cells xenografted in BALB/c nude mouse at 45 mg/kg, ip qd treated for 19 days relative to control; assay type: functional; conditions: MV4-11, 456 h, time 19 day, read-out: TGI
[35] = test system: MC-38; assay: Immunomodulatory activity in mouse MC38 cells allografted in mouse assessed as increase in IFN-gamma-positive cells at 30 mg/kg, ip qd in presence of SAHA; assay type: functional, organism-based
[36] = test system: MC-38; assay: Antitumor activity against mouse MC38 cells allografted in immunodeficient BALB/c nude mouse at 30 mg/kg, ip qd for 15 days in presence of SAHA relative to control; assay type: functional; conditions: MC-38, 360 h, time 15 day, read-out: TGI
[37] = target: T1, DNA (cytosine-5)-methyltransferase 1; assay: Synergistic inhibition of DNMT1 in human MV4-11 cells at 100 nM incubated for 2 days in presence of SAHA by RNA-Seq analysis; assay type: cell-based; conditions: time 2.0 day
[38] = Toxicity in immunodeficient BALB/c nude mouse allografted with mouse MC38 cells assessed as drug tolerance at 30 mg/kg, ip qd for 15 days in presence of SAHA; assay type: organism-based, MC-38; conditions: in vivo, 360 h, time 15 day

T1 sequence (P26358 whole entry): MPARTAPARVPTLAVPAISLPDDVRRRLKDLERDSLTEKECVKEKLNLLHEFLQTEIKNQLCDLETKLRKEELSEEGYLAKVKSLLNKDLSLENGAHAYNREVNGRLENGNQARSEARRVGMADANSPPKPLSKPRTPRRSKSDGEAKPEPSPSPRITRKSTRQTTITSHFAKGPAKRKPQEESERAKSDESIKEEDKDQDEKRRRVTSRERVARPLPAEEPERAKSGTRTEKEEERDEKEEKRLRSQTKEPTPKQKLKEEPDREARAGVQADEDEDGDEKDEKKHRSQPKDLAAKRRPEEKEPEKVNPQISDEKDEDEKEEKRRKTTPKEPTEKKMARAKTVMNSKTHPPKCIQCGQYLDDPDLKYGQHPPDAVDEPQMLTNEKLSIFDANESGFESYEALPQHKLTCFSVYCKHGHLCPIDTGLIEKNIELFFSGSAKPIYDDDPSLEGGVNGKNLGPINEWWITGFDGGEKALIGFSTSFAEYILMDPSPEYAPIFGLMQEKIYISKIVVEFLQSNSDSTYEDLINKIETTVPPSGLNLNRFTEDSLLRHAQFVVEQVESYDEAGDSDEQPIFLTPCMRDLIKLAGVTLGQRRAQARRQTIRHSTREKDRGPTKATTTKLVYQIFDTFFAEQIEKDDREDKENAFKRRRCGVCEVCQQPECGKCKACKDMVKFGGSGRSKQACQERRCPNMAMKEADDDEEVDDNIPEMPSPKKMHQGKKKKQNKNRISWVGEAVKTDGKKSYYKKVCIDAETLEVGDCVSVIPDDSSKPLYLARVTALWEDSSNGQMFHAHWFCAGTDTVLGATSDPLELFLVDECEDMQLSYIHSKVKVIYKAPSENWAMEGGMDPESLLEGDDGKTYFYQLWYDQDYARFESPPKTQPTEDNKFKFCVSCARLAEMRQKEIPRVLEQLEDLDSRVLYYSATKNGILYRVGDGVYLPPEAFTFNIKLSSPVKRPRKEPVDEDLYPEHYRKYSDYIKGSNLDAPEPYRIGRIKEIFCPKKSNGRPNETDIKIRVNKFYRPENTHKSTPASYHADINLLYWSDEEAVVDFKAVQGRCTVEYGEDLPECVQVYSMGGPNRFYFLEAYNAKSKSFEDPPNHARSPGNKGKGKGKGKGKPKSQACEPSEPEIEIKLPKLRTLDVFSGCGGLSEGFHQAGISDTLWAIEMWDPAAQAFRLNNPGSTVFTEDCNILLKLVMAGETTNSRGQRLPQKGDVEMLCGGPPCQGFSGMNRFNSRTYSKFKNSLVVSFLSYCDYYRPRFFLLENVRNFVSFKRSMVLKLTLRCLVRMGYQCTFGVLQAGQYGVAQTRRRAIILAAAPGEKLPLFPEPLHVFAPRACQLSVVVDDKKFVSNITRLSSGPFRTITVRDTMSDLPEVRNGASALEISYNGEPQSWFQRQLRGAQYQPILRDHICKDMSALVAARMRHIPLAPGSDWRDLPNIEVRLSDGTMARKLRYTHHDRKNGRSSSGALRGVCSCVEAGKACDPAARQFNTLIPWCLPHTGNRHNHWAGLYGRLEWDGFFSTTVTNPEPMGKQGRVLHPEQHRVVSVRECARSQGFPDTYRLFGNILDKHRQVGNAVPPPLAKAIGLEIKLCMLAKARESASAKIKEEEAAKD

SMILES: CCc1c(C#N)c(SC(C(N)=O)c2ccccc2)nc(N2CCC(N)CC2)c1C#N (stereo not drawn)
- Activity [1]: Active
- Activity [2]: Active
- inhibition [3]: Active
- Activity [4]: Toxic
- IC50 at 4 days [5]: 800 nM
- Activity [6]: Active
- inhibition [7]: Active
- inhibition in vivo at 30 mg/kg [8]: 89%
- IC50 [9]: 320 nM
- inhibition [10]: Active
- inhibition [11]: inactive
- Activity [12]: Non-Toxic
- Activity [13]: Active
- Activity [14]: Active
- Activity [15]: Active
- Activity [16]: Active
- Activity [17]: Active
- Activity [18]: Active
- inhibition [19]: Active
- Activity [20]: Active
- Activity [21]: 6.43%
- inhibition [22]: Active
- IC50 [23]: 400 nM
- inhibition [24]: Active
- Activity [25]: Active
- Activity [26]: Active
- Activity [27]: Active
- Activity [28]: Toxic
- inhibition [29]: inactive
- IC50 [30]: 380 nM
- IC50 [31]: > 5000 nM
- ΔTm [32]: 8 °C
- Activity [33]: Toxic
- inhibition in vivo at 45 mg/kg [34]: 93%
- Activity [35]: Active
- inhibition in vivo at 30 mg/kg [36]: 24%
- inhibition [37]: Active
- Activity [38]: Non-Toxic
